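Assay format: 96-well plates, 48-hour exposure. GI50 = concentration required for 50% inhibition of growth. The concentration for full growth arrest is given as TGI.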
Tests used:
Experiment in all cases: growth of human tumour cells (NCI), 48 h
HCC-2998 colon = test system: HCC-2998 colon
T-47D breast = test system: T-47D breast
HOP-62 NSCLC = test system: HOP-62 NSCLC
SF-539 CNS = test system: SF-539 CNS
SN12C renal = test system: SN12C renal
MDA-MB-435 = test system: MDA-MB-435
NCI/ADR-RES ovarian = test system: NCI/ADR-RES ovarian
SF-295 CNS = test system: SF-295 CNS
MALME-3M melanoma = test system: MALME-3M melanoma
SNB-75 CNS = test system: SNB-75 CNS
RPMI-8226 leukemia = test system: RPMI-8226 leukemia
SK-OV-3 ovarian = test system: SK-OV-3 ovarian
HT29 colon = test system: HT29 colon
U251 CNS = test system: U251 CNS
LOX IMVI melanoma = test system: LOX IMVI melanoma
SR leukemia = test system: SR leukemia
786-0 renal = test system: 786-0 renal
TK-10 renal = test system: TK-10 renal
HL-60(TB) leukemia = test system: HL-60(TB) leukemia
MCF7 breast = test system: MCF7 breast
NCI-H23 lung = test system: NCI-H23 lung
NCI-H226 lung = test system: NCI-H226 lung
A498 renal = test system: A498 renal
CCRF-CEM leukemia = test system: CCRF-CEM leukemia
BT-549 breast = test system: BT-549 breast
PC-3 prostate = test system: PC-3 prostate
KM12 colon = test system: KM12 colon
A549 NSCLC = test system: A549 NSCLC
OVCAR-8 ovarian = test system: OVCAR-8 ovarian
SW-620 colon = test system: SW-620 colon
NCI-H460 lung = test system: NCI-H460 lung
COLO 205 colon = test system: COLO 205 colon
HS 578T breast = test system: HS 578T breast
UACC-62 melanoma = test system: UACC-62 melanoma
SF-268 CNS = test system: SF-268 CNS
CAKI-1 renal = test system: CAKI-1 renal
UACC-257 melanoma = test system: UACC-257 melanoma
SK-MEL-2 melanoma = test system: SK-MEL-2 melanoma
MOLT-4 leukemia = test system: MOLT-4 leukemia
UO-31 renal = test system: UO-31 renal
OVCAR-5 ovarian = test system: OVCAR-5 ovarian
EKVX NSCLC = test system: EKVX NSCLC
MDA-MB-231 breast = test system: MDA-MB-231 breast
RXF 393 renal = test system: RXF 393 renal
IGROV1 ovarian = test system: IGROV1 ovarian
HCT-116 colon = test system: HCT-116 colon
M14 melanoma = test system: M14 melanoma
SNB-19 CNS = test system: SNB-19 CNS
DU-145 prostate = test system: DU-145 prostate
HOP-92 NSCLC = test system: HOP-92 NSCLC
NCI-H522 lung = test system: NCI-H522 lung
SK-MEL-5 melanoma = test system: SK-MEL-5 melanoma
SK-MEL-28 melanoma = test system: SK-MEL-28 melanoma
OVCAR-4 ovarian = test system: OVCAR-4 ovarian
ACHN renal = test system: ACHN renal
K-562 leukemia = test system: K-562 leukemia

Compound: FC(F)(F)c1cc(Br)cc(-c2cc(-c3ccc4c(c3)OCCO4)[nH]n2)c1
- GI50 (HCC-2998 colon): 0.29 µM
- TGI (HCC-2998 colon): > 100 µM
- GI50 (T-47D breast): 0.683 µM
- TGI (T-47D breast): > 100 µM
- GI50 (HOP-62 NSCLC): 0.226 µM
- TGI (HOP-62 NSCLC): > 100 µM
- GI50 (SF-539 CNS): 0.0651 µM
- TGI (SF-539 CNS): 0.757 µM
- GI50 (SN12C renal): 0.144 µM
- TGI (SN12C renal): 4.4 µM
- GI50 (MDA-MB-435): 0.0264 µM
- TGI (MDA-MB-435): 0.773 µM
- GI50 (NCI/ADR-RES ovarian): 0.0517 µM
- TGI (NCI/ADR-RES ovarian): > 100 µM
- GI50 (SF-295 CNS): 0.0318 µM
- GI50 (MALME-3M melanoma): 1.6 µM
- TGI (MALME-3M melanoma): > 100 µM
- GI50 (SNB-75 CNS): 0.12 µM
- TGI (SNB-75 CNS): 0.925 µM
- GI50 (RPMI-8226 leukemia): 0.306 µM
- TGI (RPMI-8226 leukemia): > 22.9 µM
- GI50 (SK-OV-3 ovarian): 0.124 µM
- TGI (SK-OV-3 ovarian): > 56.6 µM
- GI50 (HT29 colon): 0.0426 µM
- TGI (HT29 colon): 0.533 µM
- GI50 (U251 CNS): 0.0785 µM
- TGI (U251 CNS): 4.86 µM
- GI50 (LOX IMVI melanoma): 0.0296 µM
- TGI (LOX IMVI melanoma): > 100 µM
- GI50 (SR leukemia): 0.0364 µM
- TGI (SR leukemia): > 100 µM
- GI50 (786-0 renal): 0.0565 µM
- TGI (786-0 renal): 3.78 µM
- GI50 (TK-10 renal): 12.3 µM
- TGI (TK-10 renal): 63.4 µM
- GI50 (HL-60(TB) leukemia): 0.0336 µM
- GI50 (MCF7 breast): 0.059 µM
- TGI (MCF7 breast): > 100 µM
- GI50 (NCI-H23 lung): 0.376 µM
- TGI (NCI-H23 lung): > 100 µM
- GI50 (NCI-H226 lung): 0.214 µM
- TGI (NCI-H226 lung): > 100 µM
- GI50 (A498 renal): 0.0363 µM
- TGI (A498 renal): 0.283 µM
- GI50 (CCRF-CEM leukemia): 0.0875 µM
- TGI (CCRF-CEM leukemia): > 39.5 µM
- GI50 (BT-549 breast): 0.0567 µM
- TGI (BT-549 breast): 2.22 µM
- GI50 (PC-3 prostate): 0.0705 µM
- TGI (PC-3 prostate): > 38.5 µM
- GI50 (KM12 colon): 0.0596 µM
- TGI (KM12 colon): > 52.1 µM
- GI50 (A549 NSCLC): 0.146 µM
- TGI (A549 NSCLC): > 38.1 µM
- GI50 (OVCAR-8 ovarian): 0.213 µM
- TGI (OVCAR-8 ovarian): 1.47 µM
- GI50 (SW-620 colon): 0.054 µM
- TGI (SW-620 colon): > 100 µM
- GI50 (NCI-H460 lung): 0.0605 µM
- TGI (NCI-H460 lung): 13.9 µM
- GI50 (COLO 205 colon): 0.109 µM
- TGI (COLO 205 colon): 0.283 µM
- GI50 (HS 578T breast): 0.259 µM
- TGI (HS 578T breast): > 100 µM
- GI50 (UACC-62 melanoma): 0.039 µM
- TGI (UACC-62 melanoma): > 100 µM
- GI50 (SF-268 CNS): 0.753 µM
- TGI (SF-268 CNS): > 100 µM
- GI50 (CAKI-1 renal): 0.0793 µM
- TGI (CAKI-1 renal): > 100 µM
- GI50 (UACC-257 melanoma): 2.71 µM
- TGI (UACC-257 melanoma): > 100 µM
- GI50 (SK-MEL-2 melanoma): 0.162 µM
- TGI (SK-MEL-2 melanoma): > 100 µM
- GI50 (MOLT-4 leukemia): 0.196 µM
- TGI (MOLT-4 leukemia): > 100 µM
- GI50 (UO-31 renal): 0.201 µM
- TGI (UO-31 renal): > 100 µM
- GI50 (OVCAR-5 ovarian): 0.348 µM
- TGI (OVCAR-5 ovarian): > 100 µM
- GI50 (EKVX NSCLC): 0.645 µM
- TGI (EKVX NSCLC): > 100 µM
- GI50 (MDA-MB-231 breast): 0.0785 µM
- TGI (MDA-MB-231 breast): > 100 µM
- GI50 (RXF 393 renal): 0.0478 µM
- TGI (RXF 393 renal): 0.45 µM
- GI50 (IGROV1 ovarian): 0.153 µM
- TGI (IGROV1 ovarian): > 100 µM
- GI50 (HCT-116 colon): 0.0424 µM
- TGI (HCT-116 colon): 1.62 µM
- GI50 (M14 melanoma): 0.0765 µM
- TGI (M14 melanoma): > 38.6 µM
- GI50 (SNB-19 CNS): 0.108 µM
- TGI (SNB-19 CNS): > 100 µM
- GI50 (DU-145 prostate): 0.284 µM
- TGI (DU-145 prostate): > 100 µM
- GI50 (HOP-92 NSCLC): 1.15 µM
- TGI (HOP-92 NSCLC): 5.51 µM
- GI50 (NCI-H522 lung): 0.0236 µM
- TGI (NCI-H522 lung): 0.0694 µM
- GI50 (SK-MEL-5 melanoma): 0.0841 µM
- TGI (SK-MEL-5 melanoma): 2.54 µM
- GI50 (SK-MEL-28 melanoma): 2.68 µM
- TGI (SK-MEL-28 melanoma): > 100 µM
- TGI (OVCAR-4 ovarian): > 100 µM
- GI50 (ACHN renal): 0.0752 µM
- TGI (ACHN renal): > 100 µM
- GI50 (K-562 leukemia): 0.0373 µM
- TGI (K-562 leukemia): > 100 µM
